# Test results published in paper PMC3665789 (PLoS ONE, 2013).
# Read-outs that look alike come from different tables or passages of the source.
# Legend:
# [1] = tested on: HIV-1 IIIB; experiment: Time-of-drug-addition study, HIV; format: cell-based; settings: MT-4 cells; for time of addition after infection at which antiviral activity is completely lost: p24 Ag ELISA after 31 h, 421 µM dextran sulfate 8000, 6 µM AMD3100
# Procedure: The time-of-drug-addition (TOA) experiments were performed as described. In brief, 1×10^6 MT-4 cells/ml were infected with HIV-1 X4 IIIB at a multiplicity of infection (MOI) of 0.5. The compounds were added at different time points in a range from 0 to 26 h post-infection. After 31 h, HIV-1 replication was detected by p24 HIV-1 Ag ELISA as described above. The reference compounds were added at 100 times their EC50-values, as obtained in the MT-4 cell antiviral assay.
# [2] = tested on: HIV-1 NL4.3 binding to CD4+ SupT1 cells; format: cell-based; settings: LabyA1 9.6 µM, sCD4 10 µg/ml, AMD3100 12 µM; no compound MFI 9.8, background 3.9
# [3] = tested on: HIV-1 NL4.3; experiment: Pre-incubation of MT-4 cells with compound, wash, then HIV-1 NL4.3 infection; format: cell-based; settings: MT-4 cells pre-incubated 2 h at 37°C, washed, infected with HIV-1 NL4.3; 5 days; control 100% CPE
# [4] = tested on: HSV-2 TK^-; experiment: Anti-HSV CPE assay in HEL, summary; format: cell-based; settings: Human alphaherpesvirus 2, HEL, read-out: Median EC50
# [5] = tested on: HSV-2 strain G; experiment: Time-of-drug-addition study, HSV-2; format: cell-based; settings: HEL cells; LabyA1 19 µM, ACV 35 µM; after 3 days
# Procedure: TOA experiments for HSV-2 were performed identically as the viral replication assays, but each compound separately (LabyA1 or ACV) was added together with the virus (0 h) or after 2 h post-infection. The reference compound was added at least 100 times its EC50-value, as obtained in the HEL cell line (Table 3).
# [6] = tested on: HSV-1 wild-type KOS (reference strain); experiment: microbe, parasite or virus in culture; settings: Human alphaherpesvirus 1, HEL
# [7] = tested on: HSV-1 wild-type RV-174 (clinical isolate); experiment: microbe, parasite or virus in culture; settings: Human alphaherpesvirus 1, HEL
# [8] = tested on: HSV-1 wild-type RV-175 (clinical isolate); experiment: microbe, parasite or virus in culture; settings: Human alphaherpesvirus 1, HEL
# [9] = tested on: HSV-1 wild-type C559142 (clinical isolate); experiment: microbe, parasite or virus in culture; settings: Human alphaherpesvirus 1, HEL
# [10] = tested on: HSV-2 wild-type G (reference strain); experiment: microbe, parasite or virus in culture; settings: Human alphaherpesvirus 2, HEL
# [11] = tested on: HSV-2 wild-type RV-124 (clinical isolate); experiment: microbe, parasite or virus in culture; settings: Human alphaherpesvirus 2, HEL
# [12] = tested on: HSV-2 wild-type RV-24 (clinical isolate); experiment: microbe, parasite or virus in culture; settings: Human alphaherpesvirus 2, HEL
# [13] = tested on: HSV-1 wild-type; experiment: microbe, parasite or virus in culture; settings: Human alphaherpesvirus 1, HEL, read-out: Median EC50
# [14] = tested on: HSV-1 TK^-; experiment: microbe, parasite or virus in culture; settings: Human alphaherpesvirus 1, HEL, read-out: Median EC50
# [15] = tested on: HSV-2 wild-type; experiment: microbe, parasite or virus in culture; settings: Human alphaherpesvirus 2, HEL, read-out: Median EC50
# [16] = tested on: HSV-2 TK^- RV-129 (clinical isolate); experiment: microbe, parasite or virus in culture; format: cell-based; settings: Human alphaherpesvirus 2, HEL
# [17] = tested on: HSV-1 TK^- RV-294 (clinical isolate); experiment: microbe, parasite or virus in culture; settings: Human alphaherpesvirus 1, HEL
# [18] = tested on: HSV-1 TK^- RV-179 (clinical isolate); experiment: microbe, parasite or virus in culture; settings: Human alphaherpesvirus 1, HEL
# [19] = tested on: HSV-1 TK^- RV-117 (clinical isolate); experiment: microbe, parasite or virus in culture; settings: Human alphaherpesvirus 1, HEL
# [20] = tested on: HSV-2 TK^- BA19026589 (clinical isolate); experiment: microbe, parasite or virus in culture; settings: Human alphaherpesvirus 2, HEL
# [21] = tested on: herpes virus; experiment: Anti-herpes virus activity of griffithsin in vitro; format: cell-based
# [22] = tested on: HIV; set-up: method as in PMID 15613479, PMID 17669213; settings: cited from earlier work
# [23] = tested on: PBMCs; experiment: Activation markers CD25 and CD69 on PBMCs (flow cytometry); format: cell-based; settings: 3 days, LabyA1 9.6 µM, PHA 0.016 µM
# Procedure: The effects of 9.6 µM LabyA1 and 0.016 µM PHA on the expression levels of the cellular activation markers CD25 and CD69 on PBMCs was measured after 3 days of incubation at 37°C. After washing with PBS/FCS2%, cells were incubated with anti-CD4 conjugated with PerCP (BD Biosciences) and co-stained with the PE-conjugated mAbs anti-CD25 or anti-CD69 (both BD Biosciences) for 30 min at 4°C. For aspecific background staining, cells were incubated with SimulTest™ Control (IgGγ1-FITC/IgGγ2a-PE). After washing, and fixation with 1% formaldehyde solution, samples were analyzed using the FACSCalibur and CellQuest software (BD Biosciences).
# [24] = tested on: HIV-1 R5 BaL in PBMCs; experiment: Susceptibility of pre-treated PBMCs for HIV-1 infection; settings: washed, HIV-1 BaL, day 7
# Procedure: The next day, cells were collected, extensively washed in culture medium, resuspended (5×10^5 cells/450 µl) and seeded in a 48-well plate. Immediately afterwards, 50 µl of HIV-1 R5 strain BaL (500 pg/well) was added and cells were cultures for 7 days. Supernatant was collected 7 days post virus infection and viral replication was determined by p24 HIV-1 Ag ELISA.
molecule,measurement,setting,value
c1cc(CN2CCCNCCNCCCNCC2)ccc1CN1CCCNCCNCCCNCC1 [AMD3100],time of addition after infection at which antiviral activity is completely lost,[1],2 h
same,"virus binding, mean fluorescence intensity (MFI) of anti-gp120 (9205) mAb",[2],9.5
same,% CPE after pre-incubation of cells and removal of compound,[3],13.5±5.5 % CPE
"Nc1nc2c(ncn2COCCO)c(=O)[nH]1 [Acyclovir, acyclovir]",EC50,[4],52000 nM
same,"HSV-2 induced CPE, compound given simultaneously with virus (0 h)",[5],no CPE or viral replication were observed
same,"antiviral activity, compound added after 2 h adsorption period",[5],still active
same,EC50,[6],180 ± 90 nM
same,EC50,[7],310 ± 20 nM
same,EC50,[8],180 ± 30 nM
same,EC50,[9],90 ± 20 nM
same,EC50,[10],270 ± 10 nM
same,EC50,[11],400 ± 60 nM
same,EC50,[12],130 ± 90 nM
same,EC50,[13],180 nM
same,EC50,[14],> 79000 nM
same,EC50,[15],270 nM
"Nc1ccn(C[C@@H](CO)OCP(=O)(O)O)c(=O)n1 [Cidofovir, cidofovir]",EC50,[16],550 ± 200 nM
same,EC50,[4],750 nM
same,EC50,[6],480 ± 110 nM
same,EC50,[7],1300 ± 100 nM
same,EC50,[8],1100 ± 100 nM
same,EC50,[9],530 ± 90 nM
same,EC50,[17],300 ± 20 nM
same,EC50,[18],390 ± 120 nM
same,EC50,[19],500 ± 120 nM
same,EC50,[10],600 ± 100 nM
same,EC50,[11],1300 ± 300 nM
same,EC50,[12],1100 ± 300 nM
same,EC50,[20],950 ± 240 nM
same,EC50,[13],820 nM
same,EC50,[14],390 nM
same,EC50,[15],1100 nM
Cc1ccnc2c1NC(=O)c1cccnc1N2C1CC1 [nevirapine],time of addition post-infection up to which full activity is kept,[1]; 7.5 µM nevirapine,4 h
C[C@H](Cn1cnc2c(N)ncnc21)OCP(=O)(O)O [tenofovir],EC50,[10]; read-out: EC50 against HSV-2,> 200000 nM
Griffithsin,anti-herpes virus activity in vitro,[21],lacks anti-herpes virus activity in vitro
same,anti-HIV activity,[22],pM range
dextran sulfate 8000,time of addition after infection at which antiviral activity is completely lost,[1],1 h
enfuvirtide [T20],% CPE after pre-incubation of cells and removal of compound,[3],72.6±13.4 % CPE
"phytohemagglutinin [PHA, reference compound]",percentage of CD4+CD69+ cells,[23]; untreated 1.4±0.8%,30.9±5.5%
same,percentage of CD4+CD25+ cells,[23]; untreated 10.7±3.2%,37.2±6.6%
same,p24 HIV-1 Ag production after pre-treatment,[24]; PBMCs pre-treated 24 h with 0.016 µM,125.08 ± 37.81 ng/mL
same,p24 HIV-1 Ag production after pre-treatment,[24]; PBMCs pre-treated 24 h with 0.078 µM,169.54 ± 35.22 ng/mL
